Test results reported in PMC4674796, “Only a minority of broad-range detoxification genes respond to a variety of phytotoxins in generalist Bemisia tabaci species” (Scientific Reports, 2015).

biological target: T1, BtGST2 (Bemisia tabaci, UniProt A0A9P0F9D9); test: inhibition of CDNB/GSH conjugation, absorbance at […] nm; type: biochemical; settings: read-out: % inhibition at 0.5 mM
T1 construct: gene BEMITA_LOCUS12014
T1 sequence (A0A9P0F9D9 1-204): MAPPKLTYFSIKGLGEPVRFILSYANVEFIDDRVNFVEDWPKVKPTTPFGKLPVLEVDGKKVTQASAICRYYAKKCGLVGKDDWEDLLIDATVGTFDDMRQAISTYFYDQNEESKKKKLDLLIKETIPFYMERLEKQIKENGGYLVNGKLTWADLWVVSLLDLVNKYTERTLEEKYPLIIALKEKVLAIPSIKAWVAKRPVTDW

Going from `O=c1cc(-c2ccccc2)oc2ccccc12` [Flavone, 2-phenyl chromone] to `OCc1c[nH]c2ccccc12` [I3C], the inhibition at 500 µM falls from 67.3 ± 8.65% to 20.9 ± 7.99%.

First: O=c1c(O)c(-c2ccc(O)c(O)c2)oc2cc(O)cc(O)c12 [Quercetin hydrate]
Second: CN1CCC[C@H]1c1cccnc1 [Nicotine]
The inhibition at 500 µM of the first is higher: 97.6 ± 2.43% for the first, 6.64 ± 3.68% for the second.

Compound `C=CCN=C=S` [AITC] has an inhibition at 500 µM of 40.9 ± 5.08%.

biological target: T1, BtGST2; test: GSH/CDNB conjugation, absorbance at […] nm, Michaelis-Menten fit; type: biochemical; settings: co-substrate GSH 2.75 mM, CDNB 0.06-3 mM; 0.1 M potassium phosphate pH 6.5, 25 °C

Work on `O=[N+]([O-])c1ccc(Cl)c([N+](=O)[O-])c1` [CDNB, 1-Chloro-2,4-dinitrobenzene] yielded a Km of 710 ± 160 µM.
